Paper PMC10340331, “Methylthiosulfonate-Based Cysteine Modifiers as Alternative Inhibitors of Mercurial-Sensitive Aquaporins” (Cells, 2023)
Where a chain is given by its changes, count along the chain named. Like-named read-outs stand apart in the source and are kept apart here.

Experiments:
Format in all cases: cell-based
AQP9 [1] = molecular target: T1, AQP9 (Homo sapiens, UniProt O43315); experiment: stopped-flow light scattering water and glycerol permeability of AQP9-expressing yeast at […]
T1 sequence (O43315 1-295): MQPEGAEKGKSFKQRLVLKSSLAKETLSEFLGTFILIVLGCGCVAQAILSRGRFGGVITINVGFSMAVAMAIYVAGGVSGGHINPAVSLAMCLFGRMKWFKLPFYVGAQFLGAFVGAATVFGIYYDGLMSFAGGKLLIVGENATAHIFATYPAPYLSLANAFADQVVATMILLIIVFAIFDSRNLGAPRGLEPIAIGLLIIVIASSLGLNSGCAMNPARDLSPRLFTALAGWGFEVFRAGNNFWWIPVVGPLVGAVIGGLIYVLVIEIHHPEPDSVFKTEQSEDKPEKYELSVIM

AQP9 [2] = molecular target: T2, AQP9 (Homo sapiens, UniProt O43315, C213A); experiment: stopped-flow light scattering water and glycerol permeability of AQP9 Cys213Ala-expressing yeast at […]
T2 sequence (O43315 1-295 C213A): T1 sequence (O43315 1-295) with C213A

AQP1 [3] = molecular target: T3, AQP1 (Rattus norvegicus, UniProt P29975); experiment: stopped-flow light scattering water permeability of AQP1-expressing yeast at […] (marginal effect); Cys189Ala variant resistant
T3 sequence (P29975 1-269): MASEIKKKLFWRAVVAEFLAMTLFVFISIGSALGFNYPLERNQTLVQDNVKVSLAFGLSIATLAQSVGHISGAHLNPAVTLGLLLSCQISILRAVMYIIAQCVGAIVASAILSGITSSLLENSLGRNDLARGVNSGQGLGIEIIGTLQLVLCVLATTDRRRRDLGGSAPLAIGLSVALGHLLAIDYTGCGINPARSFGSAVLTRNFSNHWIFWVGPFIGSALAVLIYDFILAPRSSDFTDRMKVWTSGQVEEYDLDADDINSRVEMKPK

AQP9 [4] = molecular target: T2, AQP9; experiment: stopped-flow light scattering water and glycerol permeability of AQP9 Cys213Ala-expressing yeast at […]; remark: listed apart in the source
AQP1 [5] = molecular target: T3, AQP1; experiment: stopped-flow light scattering water permeability of AQP1-expressing yeast; Cys189Ala variant resistant; reversed by ACC/DTT
AQP9 [6] = molecular target: T1, AQP9; experiment: stopped-flow light scattering water and glycerol permeability of AQP9-expressing yeast at […]; remark: listed apart in the source
AQP1 [7] = molecular target: T3, AQP1; experiment: stopped-flow light scattering water permeability of AQP1-expressing yeast at […]; Cys189Ala variant resistant

## O=S(=O)([O-])c1cc[c]([Hg][Cl])cc1 [pCMBS]
AQP9 [1]
  stopped-flow light scattering water and glycerol permeability of AQP9-expressing: AQP9 water and glycerol permeability were strongly inhibited by BMTS and pCMBS
AQP9 [2]
  stopped-flow light scattering water and glycerol permeability of AQP9 Cys213Ala-: treatment of AQP9 Cys213Ala with BMTS or pCMBS failed to generate full resistance to the Cys-modifying agents

## CSS(C)(=O)=O [MMTS]
AQP1 [3]
  stopped-flow light scattering water permeability of AQP1-expressing yeast at 1 m: the transfer of a small S-methyl from MMTS had a marginal effect on the water permeability

## CS(=O)(=O)SCc1ccccc1 [BMTS]
AQP9 [4]
  stopped-flow light scattering water and glycerol permeability of AQP9 Cys213Ala-: The water permeability of AQP9 Cys213Ala was still inhibited to the same degree as that of the wildtype protein
AQP1 [5]
  IC50: 111 ± 3 µM
AQP9 [6]
  stopped-flow light scattering water and glycerol permeability of AQP9-expressing: AQP9 water and glycerol permeability were strongly inhibited by BMTS and pCMBS

## CCCSS(C)(=O)=O [PMTS]
AQP1 [7]
  stopped-flow light scattering water permeability of AQP1-expressing yeast at 1 m: modification with S-n-propyl from PMTS conferred intermediate inhibition
